In EP3623369A1, “NOVEL MORPHOLINYL AMINE COMPOUNDS FOR THE TREATMENT OF AUTOIMMUNE DISEASE” (F. Hoffmann-La Roche AG, priority 2018, dated 2020):

molecular target: T1, hTLR9 (Homo sapiens, UniProt Q9NR96); assay: HEK293-Blue-hTLR-9 cells assay (SEAP reporter, ODN2006 stimulation); format: cell-based; conditions: HEK293-Blue-hTLR9 cells, ODN2006, 20 hrs; 0.032 is the lowest tested concentration; read-out: HEK/hTLR9 IC50
T1 sequence (Q9NR96 26-1032): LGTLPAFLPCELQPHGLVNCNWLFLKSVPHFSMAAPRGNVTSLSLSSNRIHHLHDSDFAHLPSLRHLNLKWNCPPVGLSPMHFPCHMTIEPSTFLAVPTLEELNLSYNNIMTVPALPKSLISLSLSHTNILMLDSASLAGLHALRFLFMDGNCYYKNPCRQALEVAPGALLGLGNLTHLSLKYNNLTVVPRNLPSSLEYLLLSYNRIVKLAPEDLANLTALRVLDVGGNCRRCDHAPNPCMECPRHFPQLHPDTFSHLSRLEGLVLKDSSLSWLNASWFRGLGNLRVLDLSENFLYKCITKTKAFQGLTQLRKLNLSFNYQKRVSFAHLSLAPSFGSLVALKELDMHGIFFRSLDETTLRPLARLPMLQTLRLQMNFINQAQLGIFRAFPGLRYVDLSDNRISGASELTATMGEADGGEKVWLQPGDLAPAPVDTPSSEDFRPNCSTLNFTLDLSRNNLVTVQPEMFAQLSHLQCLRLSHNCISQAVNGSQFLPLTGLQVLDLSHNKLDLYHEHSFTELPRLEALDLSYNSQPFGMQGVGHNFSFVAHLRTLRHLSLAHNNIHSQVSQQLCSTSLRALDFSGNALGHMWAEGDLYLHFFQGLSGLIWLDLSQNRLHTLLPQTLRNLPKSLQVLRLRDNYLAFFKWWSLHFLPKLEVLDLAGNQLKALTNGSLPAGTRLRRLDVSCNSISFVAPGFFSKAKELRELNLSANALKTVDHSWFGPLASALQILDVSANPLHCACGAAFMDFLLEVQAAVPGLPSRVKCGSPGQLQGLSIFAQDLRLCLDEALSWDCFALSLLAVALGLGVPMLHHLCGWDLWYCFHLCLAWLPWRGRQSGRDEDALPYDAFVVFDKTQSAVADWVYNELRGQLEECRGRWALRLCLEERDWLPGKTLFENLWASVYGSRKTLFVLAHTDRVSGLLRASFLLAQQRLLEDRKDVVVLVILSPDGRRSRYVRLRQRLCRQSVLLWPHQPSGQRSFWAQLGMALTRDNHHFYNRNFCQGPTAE
Outline: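 HEK293-Blue cells with an NF-κB/AP-1-driven SEAP reporter were exposed to serially diluted compound (1% DMSO final) plus ODN2006 for 20 h at 37 °C. Supernatant SEAP was developed with QUANTI-Blue for 2 h at 37 °C and absorbance read at 620–655 nm; antagonism appears as reduced reporter signal.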

Row | IC50 | Structure (SMILES)
1 | 54 nM | C[C@@H]1CN(c2ccc(C#N)c3ncccc23)C[C@H](CN2Cc3ccc(N4CCNC[C@@H]4CO)cc3C2)O1 [Example 82, 5-[(2S,6R)-2-[[5-[(2R)-2-(hydroxymethyl)piperazin-1-yl]isoindolin-2-yl]methyl]-6-methyl-morpholin-4-yl]quinoline-8-carbonitrile]
2 | 63 nM | C[C@@H]1CN(c2ccc(C#N)c3ncccc23)C[C@H](CN2Cc3ccc(N4CCNC[C@H]4CO)cc3C2)O1 [Example 83, 5-[(2S,6R)-2-[[5-[(2S)-2-(hydroxymethyl)piperazin-1-yl]isoindolin-2-yl]methyl]-6-methyl-morpholin-4-yl]quinoline-8-carbonitrile]
3 | 50 nM | C[C@@H]1CN(c2ccc(C#N)c3nccnc23)C[C@H](CNCc2ccc(N3CCNCC3)cc2)O1 [Example 84, 8-[(2R,6S)-2-methyl-6-[[(4-piperazin-1-ylphenyl)methylamino]methyl]morpholin-4-yl]quinoxaline-5-carbonitrile]
4 | < 32 nM | C[C@@H]1CN(c2ccc(C#N)c3ncccc23)C[C@H](CNCc2ccc(N3CCNCC3)cc2)O1 [Example 86, 5-[(2R,6S)-2-methyl-6-[[(4-piperazin-1-ylphenyl)methylamino]methyl]morpholin-4-yl] quinoline-8-carbonitrile]
5 | 50600 nM | C[C@@H]1CN(c2ccc(C#N)n3nccc23)C[C@H](CN2CCc3cnccc3C2)O1 [Example R1, 4-[(2S,6R)-2-(3,4-dihydro-1H-2,6-naphthyridin-2-ylmethyl)-6-methyl-morpholin-4-yl]pyrazolo[1,5-a]pyridine-7-carbonitrile, reference compound]
6 | 47000 nM | C[C@@H]1CN(c2ccc(C#N)n3nccc23)C[C@H](CN2Cc3ccncc3C2)O1 [Example R2, 4-[(2S,6R)-2-(1,3-dihydropyrrolo[3,4-c]pyridin-2-ylmethy1)-6-methyl-morpholin-4-yl]pyrazolo[1,5-a]pyridine-7-carbonitrile, reference compound]

Row | Structure (SMILES) | IC50
7 | C[C@@H]1CN(c2ccc(C#N)c3ncccc23)C[C@H](CN2Cc3ccccc3C2)O1 [Example R3, 5-[(2S,6R)-2-(isoindolin-2-ylmethyl)-6-methyl-morpholin-4-yl]quinoline-8-carbonitrile, reference compound] | 5540 nM
